According to patent US9993462B2, “Hydantoin derivative-containing pharmaceutical composition” (Chugai Seiyaku Kabushiki Kaisha, priority 2014, dated 2018):

Experiments:
rat hepatocyte = test: Metabolic stability using rat hepatocyte; assay type: in vitro ADME
Experimental: Liver cells were prepared from the liver of rats (SD, female) by a collagenase perfusion method. A compound of the Reference Examples or a Comparative Example was added, and this was incubated at 37° C. for a specified amount of time, followed by addition of a reaction-stopping solution. The concentration of the parent compound at each reaction time was measured using LC/MS/MS, and inherent clearance (μL/10^6 cells/min) was calculated from the slope of the reaction time versus residual rate.
• Cell concentration: 1×10^6 cells/mL • Compound concentration: 1 μM • Medium: Williams' medium E • Reaction time: 0, 15, 30, 60, 120, and 240 minutes • Reaction-stopping solution: acetonitrile/2-propanol (4/6, v/v)

normal rats = test: Growth plate cartilage histology after four weeks of repeated oral administration to normal rats; assay type: in vivo, rat
Experimental: Female RccHan: WIST rats obtained from Japan Laboratory Animals Inc. were acclimated for at least one week under standard laboratory conditions of 20° C. to 26° C. and 30% to 70% humidity, and then used in experiments. The rats had free access to tap water and a standard rodent diet (CE-2, Clea Japan Inc.) containing 1.1% calcium, 1.0% phosphoric acid, and 250 IU/100 g vitamin D3.
After body weight measurement for the six-week old rats, they were divided into groups so that the average body weight of each group of ten rats would be even. From the day following group division, all rats were administered once a day repeatedly for four weeks. The solvent (vehicle) was orally administered to the Vehicle-Control group. To the Compound 7-6 mg/kg group, Compound 7-60 mg/kg group, and Compound 7-600 mg/kg group, Compound 7 suspended in the vehicle was administered orally at a dose of 6 mg/kg, 60 mg/kg, and 600 mg/kg, respectively. For all groups, the volume of administration was 2 mL/kg. Propylene glycol (special grade, Kanto Chemical Co., Inc.) was used for the vehicle. The rats were euthanized under anesthesia one day after the final administration by collecting blood from the abdominal aorta, and then autopsy was performed to collect the femur. The femur was fixed using a 10% neutral buffered formalin solution, and after demineralization, samples of paraffin-embedded tissue sections (hematoxylin-eosin stained) were prepared. Distal ends of the femur of the produced samples were observed histopathologically under a light microscope.

[1] = tested on: rabbit articular chondrocytes; test: Suppression of terminal differentiation of rabbit articular chondrocytes (alkaline phosphatase and alizarin red staining); assay type: cell-based; conditions: BMP-2 100 ng/mL, Compound 7 10^−7 to 10^−5 mol/L, PTH(1-34) 10^−10 to 10^−7 mol/L
Experimental: NZW rabbits (4-week old, Oriental Yeast Co., Ltd.) were euthanized, and then the articular cartilage of the lower leg bone was collected, and transferred to a 50-mL test tube (Nippon Becton Dickinson Company). PBS (Nacalai Tesque, Inc.) containing 1% trypsin (Wako Pure Chemical Industries, Ltd.) was added to this, and the soft tissue was digested at 37° C. for one hour. This was followed by centrifugation at 1,200 rpm for five minutes, then supernatant was removed and PBS(−) was added to suspend the cartilage tissue. This was centrifuged at 1,200 rpm for five minutes, followed by removal of the supernatant, and washed three times by suspending in PBS(−). This was centrifuged at 1,200 rpm for five minutes, and then the cell pellet was digested by treatment with DMEM (Life Technologies Japan, Ltd.) containing 0.2% Type II collagenase (CLS-2, Worthington Biochemical Corp.) at 37° C. for three hours. Fetal bovine serum (Life Technologies Japan, Ltd.) was added at 10% v/v to stop the reaction, and this was vigorously pipetted using a 10-mL pipette (Nippon Becton Dickinson Company) to isolate the chondrocytes. This was centrifuged at 1,200 rpm for five minutes, followed by removal of the supernatant, and washed three times by suspending in 10% FCS-containing DMEM, and the chondrocytes were seeded at 1×10^4 cells/well on an I-type collagen-coated 96-well culture plate (AGC TECHNO GLASS CO., LTD.). Medium exchange was performed three times a week; and after the cells reached confluency, they were cultured in DMEM containing 100 μg/mL L-ascorbic acid phosphate magnesium salt n-hydrate (Wako Pure Chemical Industries, Ltd.), 10 mmol/L β-glycerophosphate pentahydrate (Wako Pure Chemical Industries, Ltd.) and 10% FCS. The following conditions were used to culture the cells, and alkaline phosphatase staining (cultured for 14 days) and alizarin red staining (cultured for 21 days) were performed to evaluate terminal differentiation of chondrocytes.
Alkaline phosphatase staining was performed by discarding the medium, then washing the chondrocytes once with 200 mmol/L Tris-HCl pH8.2 buffer, staining the cells according to the protocol supplied with the alkaline phosphatase staining kit (Vector Red Alkaline Phosphatase Substrate Kit I, Vector Laboratories, Inc.), and taking photographs with an inverted microscope (Nikon Corporation) (4× objective).
Alizarin red staining was performed by discarding the medium, then washing the chondrocytes twice with PBS, fixing the cells using 100% ethanol (Wako Pure Chemical Industries Ltd.) for 15 minutes, discarding the ethanol, and then staining with 1% alizarin red S (Wako Pure Chemical Industries Ltd.) for 15 minutes, followed by washing with distilled water; and photographs were taken with an inverted microscope.

[2] = tested on: human articular chondrocytes; test: Proteoglycan synthesis by human articular chondrocytes (35S-sulfate incorporation); assay type: cell-based; conditions: cultured for 13 days
Experimental: After purchase of cryopreserved human articular chondrocytes (Lot 2867, Cell Applications Inc.), the cells were thawed in a 37° C. water bath, 15 mL of Basal Medium supplemented with 10% Growth Supplement (Growth Medium, Cell Applications Inc.) was placed in a T75 culture flask (CORNING, Corning Japan K. K.) to culture the cells, and exchanged the next day with 15 mL of Growth Medium; and the cells were cultured for three days. Growth Medium was then removed, and HBSS (Cell Applications Inc.) was used to wash the chondrocyte layer. With addition of 1 mL of trypsin/EDTA solution (Cell Applications Inc.), this was left to stand at room temperature for approximately five minutes, and chondrocytes were detached from the flask. With 10 mL of Neutralization solution (Cell Applications Inc.) added, Bulker-Turk hemocytometer was used to determine the cell count, and the cells were then transferred to a 15-mL test tube for centrifugation (1,200 rpm for five minutes, Tomy Seiko Co., Ltd.) to produce a chondrocyte pellet. The supernatant was discarded, and the cells were placed in a 1.2% sodium alginate solution (25 mmol/L HEPES/150 mmol/L sodium chloride solution, pH7.0) at 2×10^6 cells/mL. This was drawn into a 1-mL syringe (Terumo Corporation) equipped with a 22G injection needle, five drops were added to each well of a 24-well plate (Corning Japan K.K.) containing 2 mL of 102 mmol/L aqueous CaCl2 solution, and this was left to stand for five minutes to form beads. Subsequently, this was washed three times with a 150 mmol/L sodium chloride solution and incubated for one day in Growth Medium, and the medium was exchanged with Basal Medium supplemented with 1% Growth supplement (Cell Applications Inc.). In this procedure, the following factors were added to the medium, and the cells were cultured for 13 days with three times of medium exchange performed per week.
On day 12 of culturing, ^35S-labeled sulfuric acid (PerkinElmer Japan Co., Ltd.) was added at 370 kBq/well, and the medium was collected 24 hours later into a test tube and stored at 4° C. To the alginate gel, a 55 mmol/L sodium citrate solution (Nacalai Tesque, Inc.; 1 mL/well) was added, and this was incubated at 37° C. for ten minutes for solation. This was collected into a microtube (Eppendorf AG) and then centrifuged (1,200 rpm, five minutes) to produce a chondrocyte pellet. […] The glass filter was transferred to a liquid scintillation counter vial, 5 mL of scintillator (Hionic-Fluor, PerkinElmer Japan Co., Ltd.) was added and radioactivity was measured on a liquid scintillation counter (TRI-CARB, PerkinElmer Japan Co., Ltd.).
The remaining 0.1 mL of the digested solution was used for DNA quantification. […]

[3] = 60 mg/kg oral once a day for four weeks, 10 per group
[4] = 600 mg/kg oral once a day for four weeks, 10 per group

In the case of `Cc1cc(N2C(=O)NC(=O)C2(C)C)cc(C)c1CCS(=O)(=O)N1CCC2(CC1)N=C(c1ccc(OC(F)(F)F)cc1)NC2=O` [Compound 7, 1-(3,5-dimethyl-4-(2-((4-oxo-2-(4-(trifluoromethoxy)phenyl)-1,3,8-triazaspiro[4.5]deca-1-en-8-yl)sulfonyl)ethyl)phenyl)-5,5-dimethylimidazolidine-2,4-dione], the “rat hepatocyte metabolic stability compared to Comparative Examples 1, 2, 3, 5, and 6 (in words)” value (rat hepatocyte) is reported as “increased”, the “Number of cases in which growth plate cartilage thickening was observed, Grade 1” value (normal rats; [3]) is reported as 5 and the “Number of cases in which growth plate cartilage thickening was observed, Grade 2” value (normal rats; [3]) is reported as 3. The “Number of cases in which growth plate cartilage thickening was observed, Overall” value (normal rats; [3]) was 8, the “Number of cases in which growth plate cartilage thickening was observed, Grade 3” value (normal rats; [4]) was 1 and the “Number of cases in which growth plate cartilage thickening was observed, Grade 4” value (normal rats; [4]) was 9. The “Number of cases in which growth plate cartilage thickening was observed, Overall” value (normal rats; [4]) was 10, the “thickening of the femoral growth plate cartilage in comparison to the Vehicle-Control group (in words)” value (normal rats; 6, 60, 600 mg/kg oral once a day for four weeks) was “dose-dependent thickening” and the “width of a representative growth plate cartilage” value (normal rats; one individual of the 600 mg/kg group, from the tissue image of FIG. 8 (Vehicle-Control individual approximately 390 μm)) was “approximately 2940 μm”. For the same molecule, the “alkaline phosphatase activity (alkaline phosphatase staining)” value ([1]; cultured for 14 days) was “suppressed alkaline phosphatase activity in a concentration-dependent manner”, the “alizarin red staining property (calcification)” value ([1]; cultured for 21 days) was “suppressed the alizarin staining property in a concentration-dependent manner” and the “radioactivity (proteoglycan synthesis, cpm/μg DNA) relative to the vehicle control” value ([2]; 10^−5 mol/L) was 10 fold. The “radioactivity (proteoglycan synthesis, cpm/μg DNA) relative to the vehicle control” value ([2]; 10^−6 mol/L) was 3 fold.
